# Measurements from patent publication US20240115672A1, “TREATMENT OF AN IOP CONDITION” (THE RESEARCH FOUNDATION FOR THE STATE UNIVERSITY OF NEW YORK, priority 2021, published 2024).
# B1: RAP: inhibitor of LRP1 (protein, UniProt P30533 35-357, looked up)
# Alpha-2-macroglobulin …: YSREKNQPKPSPKRESGEEFRMEKLNQLWEKAQRLHLPPVRLAELHADLKIQERDELAWKKLKLDGLDEDGEKEARLIRNLNVILAKYGLDGKKDARQVTSNSLSGTQEDGLDDPRLEKLWHKAKTSGKFSGEELDKLWREFLHHKEKVHEYNVLLETLSRTEEIHENVISPSDLSDIKGSVLHSRHTELKEKLRSINQGLDRLRRVSHQGYSTEAEFEEPRVIDLWDLAQSANLTDKELEAFREELKHFEAKIEKHNHYQKQLEIAHEKLRHAESVGDGERVSRSREKHALLEGRTKELGYTVKKHLQDLSGRISRARHNEL
# Legend:
# [1] = system: MMP-2, MMP-9, MMP-13 expression in HTM cells; experiment: MMP expression in HTM cells (Examples 17, 18); type: cell-based, human; settings: for MMP-9 expression compared to PA+NE-tPA treated cells: p<0.0001
# [2] = system: Mmp-2, Mmp-9, Mmp-13 mRNA in angle ring tissues; experiment: Mmp expression in Tg-MYOCY437H angle ring tissues (Example 19); type: in vivo, mouse; settings: 5 days treatment
# Experimental: Eyes were flash frozen in liquid nitrogen after outflow facility determination and subsequently dissected on ice to obtain the angle ring tissues containing the TM, as previously described (Kumar, Shah et al. 2013). Dissected TM tissues were immersed in RNAlater solution (Invitrogen, Waltham, MA, USA) and then snap-frozen and stored at −80° C. until RNA extraction. Tissue collected was pooled (four eyes) and homogenized in TRIzol reagent for RNA isolation, per manufacturer's instructions (Life Technologies, Carlsbad, CA, USA). RNA concentration was determined with a Nanodrop ND-1000 Spectrophotometer (Thermo Scientific, Wilmington, DE, USA). cDNA was synthesized by using High-Capacity cDNA
# Reverse Transcription Kit (Applied Biosystems, Waltham, MA, USA) according to manufacturer's protocol. Quantitative real-time PCR (qRT-PCR) was performed by using Green-2-Go qPCR Mastermix-ROX (Bio Basic, Amherst, NY, USA) on a QuantStudio 6 Flex thermal cycler (Applied Biosystems, Carlsbad, CA, USA). mRNA expression of Plat, Plait, Pai-1, Mmp-2, Mmp-9, and Mmp-13 in angle ring tissues was determined. Primers were designed by using Primer-BLAST (haps://www.ncbi.nlm.nih.gov/tools/primer-blast/index.cgi?LINK_LOC=BlastHome; in the public domain); primer sequences are listed in Table 2. Primer specificity was confirmed by agarose gel electrophoresis and multiple-sized amplification products were absent on inspection of melting curves. Target mRNA expression values were normalized to the expression levels of Rps11 (ribosomal protein S11). The relative fold change was calculated by using the ΔΔCt method (Hu, Wang et al. 2015). Outliers identified via the Thompson Tau test were removed from analysis.
# Tg-MYOCY437H mice = settings: systemic and topical administration; cited from earlier work
# sheep = experiment: Sheep given tPA or arginine concurrently with prednisolone (Example 3 Protocol 2, Example 4); type: in vivo; settings: 4.23 mg arginine intravitreal plus prednisolone (OS) compared to tPA and prednisolone (OD)
# Experimental: Protocol 2. In a second set of experiments, arginine was added to the BSS vehicle administered to the left eye to control for the relatively high concentration of the amino acid in the commercially available tPA lyophilisate. In these experiments all right eyes received 0.1 mg tPA, which concomitantly delivered 4.23 mg of arginine into the vitreous, and the left eye received this same amount of arginine, absent the tPA. On Day 1, prednisolone treatments were also begun simultaneously on both eyes.
# Methods. In this experiment, the inventor sought to detect the effects of tPA treatment on prevention of steroid-induced IOP elevation. In 4 sheep tPA was injected in one eye (100 μg) and they were started on prednisolone acetate three times a day in both eyes. Animals were monitored for 11 days on continuous treatment.
# [3] = system: sheep of the Coriedale breed; experiment: IOP in prednisolone-treated sheep after tPA injection into the anterior chamber (Example 9); type: in vivo
# Experimental: Methods. Lyophilized IPA, obtained as Acetilyse® from Boehringer Ingelheim S.A. (Buenos Aires) containing arginine. was used. Five sheep of the Coriedale breed were selected. Initially all eyes received instillation of 1% prednisolone 3 times/day for 10 days to elevate their IOP from 10 mm Hg to about 23 mm Hg. Then, 0.0001 μg was injected into one of the eyes and its effect was followed for up to 55:00 hrs while the instillation of prednisolone continued in both eyes. The same protocol was implemented for the 0.001 and 0.01 μg amounts (after extended washout) in the contra lateral eyes. Arginine, which is associated with 0.01 ug tPA, was injected alone and had no effect.
molecule,measurement,setting,value
C[C@]12N[C@H](Cc3ccccc31)c1ccccc12 [MK-801],MMP-9 expression compared to PA+NE-tPA treated cells,[1]; inhibitor added to PA+NE-tPA,significantly lower
same,MMP-2 expression compared to PA+NE-tPA treatment,"[1]; inhibitor added to PA+NE-tPA, p<0.05",significant reduction
"O=C([O-])CCCc1ccccc1.[Na+] [PBA, sodium phenylbutarate]",Mmp-9 expression compared to BSA treated eyes,[2],higher
same,Mmp-13 expression compared to BSA treated eyes,[2],did not show any difference
same,Mmp-2 expression compared to BSA treated eyes,[2]; p>0.05,no significant difference
same,effect on IOP,Tg-MYOCY437H mice,effective in reducing IOP
N=C(N)NCCC[C@H](N)C(=O)O [arginine],effect of arginine alone,sheep,failed to reduce outflow facility
same,effect of arginine injected alone,[3]; amount associated with 0.01 ug tPA,no effect
"CC(=O)OCC(=O)[C@@]1(O)CC[C@H]2[C@@H]3CCC4=CC(=O)C=C[C@]4(C)[C@H]3[C@@H](O)C[C@@]21C [prednisolone, prednisolone acetate]",IOP after prednisolone,"[3]; 1% prednisolone 3 times/day for 10 days, from 10 mm Hg",about 23 mm Hg
same,MMP-13 expression (FIG. 17D),[1]; PA treated HTM cells,below detection limits
B1,MMP-9 expression compared to PA+NE-tPA treated cells,[1]; inhibitor added to PA+NE-tPA,significantly lower
